Test results from PubChem BioAssay (NCI).
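Method: 48-hour compound exposure of cells in 96-well plates, five concentrations, linear interpolation of endpoints. GI50 marks 50% less growth. TGI: total growth inhibition.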

Legend:
Experiment in all cases: NCI anticancer screen, dose series, 48 h
[1] = test system: 786-0 renal
[2] = test system: A498 renal
[3] = test system: A549 NSCLC
[4] = test system: ACHN renal
[5] = test system: CCRF-CEM leukemia
[6] = test system: DLD-1 colon
[7] = test system: DMS 273 small cell lung
[8] = test system: EKVX NSCLC
[9] = test system: HCC-2998 colon
[10] = test system: HCT-15 colon
[11] = test system: HOP-18 NSCLC
[12] = test system: HOP-62 NSCLC
[13] = test system: HT29 colon
[14] = test system: K-562 leukemia
[15] = test system: KM12 colon
[16] = test system: KM20L2 colon
[17] = test system: LOX IMVI melanoma
[18] = test system: MALME-3M melanoma
[19] = test system: NCI-H226 lung
[20] = test system: NCI-H23 lung
[21] = test system: NCI-H460 lung
[22] = test system: OVCAR-3 ovarian
[23] = test system: OVCAR-5 ovarian
[24] = test system: OVCAR-8 ovarian
[25] = test system: RPMI-8226 leukemia
[26] = test system: SF-268 CNS
[27] = test system: SF-295 CNS
[28] = test system: SF-539 CNS
[29] = test system: SK-MEL-2 melanoma
[30] = test system: SK-MEL-28 melanoma
[31] = test system: SK-MEL-5 melanoma
[32] = test system: SN12C renal
[33] = test system: SNB-19 CNS
[34] = test system: SNB-75 CNS
[35] = test system: SW-620 colon
[36] = test system: TK-10 renal
[37] = test system: U251 CNS
[38] = test system: UACC-257 melanoma
[39] = test system: UO-31 renal
[40] = test system: XF 498 CNS
[41] = test system: CAKI-1 renal
[42] = test system: COLO 205 colon
[43] = test system: HL-60(TB) leukemia
[44] = test system: IGROV1 ovarian
[45] = test system: M19-MEL melanoma
[46] = test system: OVCAR-4 ovarian
[47] = test system: RXF 393 renal
[48] = test system: SK-OV-3 ovarian
[49] = test system: UACC-62 melanoma
[50] = test system: DMS 114 small cell lung
[51] = test system: HCT-116 colon
[52] = test system: M14 melanoma
[53] = test system: MOLT-4 leukemia
[54] = test system: NCI-H522 lung
[55] = test system: SNB-78 CNS
[56] = test system: SR leukemia
[57] = test system: HOP-92 NSCLC
[58] = test system: LXFL 529 NSCLC

Structure (SMILES): O=C(c1ccc(Cl)cc1)C1OC12C(=O)Nc1c(Cl)cc(Cl)cc12 (centres undefined)
- TGI [1]: > 100 µM
- TGI [2]: > 100 µM
- TGI [3]: > 100 µM
- TGI [4]: > 100 µM
- TGI [5]: 66.3 µM
- TGI [6]: > 100 µM
- TGI [7]: > 100 µM
- TGI [8]: 65.2 µM
- TGI [9]: > 100 µM
- TGI [10]: > 100 µM
- TGI [11]: > 100 µM
- TGI [12]: > 100 µM
- TGI [13]: > 100 µM
- TGI [14]: > 100 µM
- TGI [15]: > 100 µM
- TGI [16]: > 100 µM
- TGI [17]: > 100 µM
- TGI [18]: > 100 µM
- TGI [19]: > 100 µM
- TGI [20]: > 100 µM
- TGI [21]: > 100 µM
- TGI [22]: 77.8 µM
- TGI [23]: > 100 µM
- TGI [24]: > 100 µM
- TGI [25]: 45.4 µM
- TGI [26]: > 100 µM
- TGI [27]: > 100 µM
- TGI [28]: > 100 µM
- TGI [29]: > 100 µM
- TGI [30]: > 100 µM
- TGI [31]: > 100 µM
- TGI [32]: > 100 µM
- TGI [33]: > 100 µM
- TGI [34]: 83.4 µM
- TGI [35]: > 100 µM
- TGI [36]: > 100 µM
- TGI [37]: > 100 µM
- TGI [38]: > 100 µM
- TGI [39]: > 100 µM
- TGI [40]: 87.8 µM

Structure (SMILES): CC(=O)[CH-]C(=O)c1ccccc1.[C-]#[O+].[C-]#[O+].[Ir]
- GI50 [1]: > 100 µM
- TGI [1]: > 100 µM
- GI50 [3]: > 100 µM
- TGI [3]: > 100 µM
- GI50 [41]: > 100 µM
- TGI [41]: > 100 µM
- GI50 [42]: > 100 µM
- TGI [42]: > 100 µM
- GI50 [6]: > 100 µM
- TGI [6]: > 100 µM
- GI50 [8]: > 100 µM
- TGI [8]: > 100 µM
- GI50 [9]: > 100 µM
- TGI [9]: > 100 µM
- GI50 [10]: > 100 µM
- TGI [10]: > 100 µM
- GI50 [43]: > 100 µM
- TGI [43]: > 100 µM
- GI50 [11]: > 100 µM
- TGI [11]: > 100 µM
- GI50 [13]: > 10 µM
- TGI [13]: > 10 µM
- GI50 [44]: > 100 µM
- TGI [44]: > 100 µM
- GI50 [15]: > 10 µM
- TGI [15]: > 10 µM
- GI50 [17]: > 100 µM
- TGI [17]: > 100 µM
- GI50 [45]: > 100 µM
- TGI [45]: > 100 µM
- GI50 [18]: > 100 µM
- TGI [18]: > 100 µM
- GI50 [19]: > 100 µM
- TGI [19]: > 100 µM
- GI50 [20]: > 100 µM
- TGI [20]: > 100 µM
- GI50 [21]: > 10 µM
- TGI [21]: > 10 µM
- GI50 [46]: > 100 µM
- TGI [46]: > 100 µM
- GI50 [23]: > 100 µM
- TGI [23]: > 100 µM
- GI50 [24]: > 100 µM
- TGI [24]: > 100 µM
- GI50 [25]: > 10 µM
- TGI [25]: > 10 µM
- GI50 [47]: > 100 µM
- TGI [47]: > 100 µM
- GI50 [27]: > 100 µM
- TGI [27]: > 100 µM
- GI50 [28]: > 100 µM
- TGI [28]: > 100 µM
- GI50 [29]: > 100 µM
- TGI [29]: > 100 µM
- GI50 [30]: > 100 µM
- TGI [30]: > 100 µM
- GI50 [31]: > 100 µM
- TGI [31]: > 100 µM
- GI50 [48]: > 100 µM
- TGI [48]: > 100 µM
- GI50 [32]: > 100 µM
- TGI [32]: > 100 µM
- GI50 [33]: > 100 µM
- TGI [33]: > 100 µM
- GI50 [34]: > 100 µM
- TGI [34]: > 100 µM
- GI50 [35]: > 100 µM
- TGI [35]: > 100 µM
- GI50 [36]: > 100 µM
- TGI [36]: > 100 µM
- GI50 [37]: > 100 µM
- TGI [37]: > 100 µM
- GI50 [38]: > 100 µM
- TGI [38]: > 100 µM
- GI50 [49]: > 100 µM
- TGI [49]: > 100 µM
- GI50 [39]: > 100 µM
- TGI [39]: > 100 µM

Structure (SMILES): O=C1c2ccccc2C(=O)c2[nH]cnc21
- TGI [1]: > 100 µM
- TGI [2]: > 100 µM
- TGI [3]: > 100 µM
- TGI [4]: > 100 µM
- TGI [41]: > 100 µM
- TGI [5]: > 100 µM
- TGI [6]: > 100 µM
- TGI [50]: 86.9 µM
- TGI [7]: > 100 µM
- TGI [8]: > 100 µM
- TGI [9]: > 100 µM
- TGI [51]: > 100 µM
- TGI [10]: > 100 µM
- TGI [43]: > 100 µM
- TGI [12]: > 100 µM
- TGI [13]: > 100 µM
- TGI [14]: > 100 µM
- TGI [15]: > 100 µM
- TGI [52]: > 100 µM
- TGI [45]: 40.6 µM
- TGI [18]: 57.3 µM
- TGI [53]: > 100 µM
- TGI [19]: 93.3 µM
- TGI [20]: > 100 µM
- TGI [21]: > 100 µM
- TGI [54]: > 100 µM
- TGI [22]: 66.2 µM
- TGI [46]: > 100 µM
- TGI [24]: > 100 µM
- TGI [47]: > 100 µM
- TGI [26]: > 100 µM
- TGI [27]: > 100 µM
- TGI [28]: > 100 µM
- TGI [29]: > 100 µM
- TGI [30]: > 100 µM
- TGI [31]: 34.2 µM
- TGI [32]: > 100 µM
- TGI [33]: > 100 µM
- TGI [55]: > 100 µM
- TGI [56]: > 100 µM
- TGI [36]: > 100 µM
- TGI [37]: > 100 µM
- TGI [38]: 54.2 µM
- TGI [49]: 82.2 µM
- TGI [39]: > 100 µM
- TGI [40]: 99.4 µM

Structure (SMILES): O=C(c1ccccc1)C1(Br)S(=O)(=O)OCCOS1(=O)=O
- TGI [1]: > 100 µM
- TGI [2]: > 100 µM
- TGI [3]: > 100 µM
- TGI [4]: > 100 µM
- TGI [5]: > 100 µM
- TGI [42]: > 100 µM
- TGI [6]: > 100 µM
- TGI [50]: > 100 µM
- TGI [7]: > 100 µM
- TGI [8]: > 100 µM
- TGI [9]: > 100 µM
- TGI [51]: > 100 µM
- TGI [10]: > 100 µM
- TGI [43]: > 100 µM
- TGI [12]: > 100 µM
- TGI [57]: > 100 µM
- TGI [13]: > 100 µM
- TGI [44]: > 100 µM
- TGI [14]: > 100 µM
- TGI [16]: > 100 µM
- TGI [17]: > 100 µM
- TGI [58]: > 100 µM
- TGI [52]: > 100 µM
- TGI [45]: > 100 µM
- TGI [18]: > 100 µM
- TGI [53]: > 100 µM
- TGI [19]: > 100 µM
- TGI [20]: > 100 µM
- TGI [21]: > 100 µM
- TGI [54]: > 100 µM
- TGI [22]: > 100 µM
- TGI [46]: > 100 µM
- TGI [23]: > 100 µM
- TGI [24]: > 100 µM
- TGI [25]: > 100 µM
- TGI [47]: > 100 µM
- TGI [26]: > 100 µM
- TGI [27]: > 100 µM
- TGI [28]: > 100 µM
- TGI [29]: > 100 µM
- TGI [30]: > 100 µM
- TGI [31]: > 100 µM
- TGI [48]: > 100 µM
- TGI [32]: > 100 µM
- TGI [33]: > 100 µM
- TGI [34]: > 100 µM
- TGI [55]: > 100 µM
- TGI [56]: > 100 µM
- TGI [35]: > 100 µM
- TGI [36]: > 100 µM
- TGI [37]: > 100 µM
- TGI [38]: > 100 µM
- TGI [49]: > 100 µM
- TGI [39]: > 100 µM
- TGI [40]: > 100 µM
